Assay results from ChEMBL document CHEMBL5241080, “Quinoline anticancer agents active on DNA and DNA-interacting proteins: From classical to emerging therapeutic targets” (Eur J Med Chem, 2021).

Tests used:
[1] = test system: KB; experiment: Antiproliferative activity against human KB cells; format: functional, cell-based
[2] = Antiproliferative activity against mouse P338 cells; format: functional, cell-based
[3] = Inhibition of topoisomerase 2 (unknown origin); design: species or system Homo sapiens
[4] = target: T1, DNA topoisomerase 1 (Homo sapiens, UniProt P11387); experiment: Inhibition of topoisomerase 1 (unknown origin)
T1 sequence (P11387 whole entry): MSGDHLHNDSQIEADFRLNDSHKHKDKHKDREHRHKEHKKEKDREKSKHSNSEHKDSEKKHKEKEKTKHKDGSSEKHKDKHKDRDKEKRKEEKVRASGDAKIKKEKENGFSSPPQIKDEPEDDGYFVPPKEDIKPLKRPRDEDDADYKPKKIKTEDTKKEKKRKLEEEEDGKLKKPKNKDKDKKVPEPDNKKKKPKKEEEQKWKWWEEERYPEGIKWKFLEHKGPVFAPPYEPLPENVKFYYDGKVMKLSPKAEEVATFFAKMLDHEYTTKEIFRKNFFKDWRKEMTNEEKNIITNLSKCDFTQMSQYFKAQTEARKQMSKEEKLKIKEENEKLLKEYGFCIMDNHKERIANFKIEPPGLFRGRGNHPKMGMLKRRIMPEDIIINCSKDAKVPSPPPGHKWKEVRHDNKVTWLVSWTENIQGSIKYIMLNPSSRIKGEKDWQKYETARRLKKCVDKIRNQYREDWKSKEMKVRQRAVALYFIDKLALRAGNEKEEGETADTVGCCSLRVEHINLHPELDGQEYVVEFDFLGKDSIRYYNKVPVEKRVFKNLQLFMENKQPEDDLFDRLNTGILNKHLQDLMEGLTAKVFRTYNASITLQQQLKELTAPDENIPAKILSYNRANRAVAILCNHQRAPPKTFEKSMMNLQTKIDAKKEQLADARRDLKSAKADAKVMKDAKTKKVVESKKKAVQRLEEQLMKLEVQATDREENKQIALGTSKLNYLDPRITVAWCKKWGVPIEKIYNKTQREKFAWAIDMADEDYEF

[5] = test system: MCF7; experiment: Antiproliferative activity against human MCF7 cells assessed as inhibition of cell growth incubated for 72 hrs by MTT assay; format: functional, cell-based; conditions: MCF7, 72 h
[6] = test system: CAKI-1; experiment: Antiproliferative activity against human CAKI-1 cells assessed as inhibition of cell growth incubated for 72 hrs by MTT assay; format: functional, cell-based; conditions: CAKI-1, 72 h
[7] = test system: MDA-MB-231; experiment: Cytotoxicity against human MDA-MB-231 cells at 1 uM by MTT assay; format: functional
[8] = test system: Raji; experiment: Antiproliferative activity against human Raji cells assessed as reduction cell viability incubated for 48 hrs by MTT assay; format: functional, cell-based
[9] = test system: PC-3; experiment: Antiproliferative activity against human PC-3 cells assessed as reduction cell viability incubated for 48 hrs by MTT assay; format: functional, cell-based; conditions: PC-3, 48 h
[10] = test system: MDA-MB-231; experiment: Antiproliferative activity against human MDA-MB-231 cells assessed as reduction cell viability incubated for 48 hrs by MTT assay; format: functional, cell-based; conditions: MDA-MB-231, 48 h
[11] = target: T2, DNA (cytosine-5)-methyltransferase 1 (Homo sapiens, UniProt P26358); experiment: Inhibition of human recombinant full-length N-terminal GST tagged DNMT1 (2 to 1632 residues) expressed in Sf9 insect cells using poly(dI-dC) as substrate by hotspot assay
T2 sequence (P26358 whole entry, the tested form may be a part): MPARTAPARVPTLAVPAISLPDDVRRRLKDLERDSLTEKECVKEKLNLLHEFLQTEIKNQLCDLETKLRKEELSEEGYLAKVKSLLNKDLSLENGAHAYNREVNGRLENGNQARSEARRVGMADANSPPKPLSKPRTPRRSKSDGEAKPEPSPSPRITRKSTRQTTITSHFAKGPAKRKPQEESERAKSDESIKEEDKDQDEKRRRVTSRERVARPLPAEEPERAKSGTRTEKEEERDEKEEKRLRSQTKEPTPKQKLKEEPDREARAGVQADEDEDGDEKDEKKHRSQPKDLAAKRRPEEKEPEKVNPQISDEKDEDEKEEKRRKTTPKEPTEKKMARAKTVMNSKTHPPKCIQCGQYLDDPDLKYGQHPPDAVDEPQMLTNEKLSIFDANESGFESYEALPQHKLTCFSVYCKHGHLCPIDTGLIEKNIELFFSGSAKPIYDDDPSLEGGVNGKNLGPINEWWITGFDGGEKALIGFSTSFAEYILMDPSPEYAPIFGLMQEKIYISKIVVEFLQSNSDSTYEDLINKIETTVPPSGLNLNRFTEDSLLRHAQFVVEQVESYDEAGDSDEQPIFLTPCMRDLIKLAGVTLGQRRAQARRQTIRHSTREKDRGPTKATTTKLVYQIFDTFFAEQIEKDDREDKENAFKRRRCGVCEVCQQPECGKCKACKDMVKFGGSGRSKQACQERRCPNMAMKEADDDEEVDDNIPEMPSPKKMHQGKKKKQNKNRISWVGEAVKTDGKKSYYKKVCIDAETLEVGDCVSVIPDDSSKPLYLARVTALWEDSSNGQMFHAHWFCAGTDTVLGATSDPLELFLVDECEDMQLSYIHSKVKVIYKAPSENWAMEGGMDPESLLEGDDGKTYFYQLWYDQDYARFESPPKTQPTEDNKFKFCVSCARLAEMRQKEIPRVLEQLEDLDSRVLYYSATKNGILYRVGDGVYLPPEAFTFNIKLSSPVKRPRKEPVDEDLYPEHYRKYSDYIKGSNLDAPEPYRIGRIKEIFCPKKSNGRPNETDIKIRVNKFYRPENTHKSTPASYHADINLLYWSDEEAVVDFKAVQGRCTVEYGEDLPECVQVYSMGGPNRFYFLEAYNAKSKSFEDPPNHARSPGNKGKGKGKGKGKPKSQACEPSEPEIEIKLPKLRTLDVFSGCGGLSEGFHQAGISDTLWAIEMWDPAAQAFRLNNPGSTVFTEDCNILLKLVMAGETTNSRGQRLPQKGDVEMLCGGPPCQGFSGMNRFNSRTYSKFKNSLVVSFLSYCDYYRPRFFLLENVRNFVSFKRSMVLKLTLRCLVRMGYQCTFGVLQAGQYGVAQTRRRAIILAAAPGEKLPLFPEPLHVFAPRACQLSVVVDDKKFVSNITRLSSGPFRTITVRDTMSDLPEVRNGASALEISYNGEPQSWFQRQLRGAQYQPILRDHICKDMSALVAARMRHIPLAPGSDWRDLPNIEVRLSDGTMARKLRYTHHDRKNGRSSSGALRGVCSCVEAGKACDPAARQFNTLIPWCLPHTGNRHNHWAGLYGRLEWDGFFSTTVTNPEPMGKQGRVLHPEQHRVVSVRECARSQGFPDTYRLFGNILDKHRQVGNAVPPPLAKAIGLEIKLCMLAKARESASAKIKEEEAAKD

[12] = test system: U-937; experiment: Antiproliferative activity against human U-937 cells assessed as reduction cell viability incubated for 48 hrs by MTT assay; format: functional, cell-based; conditions: U-937, 48 h
[13] = Antiproliferative activity against human RPMI cells assessed as reduction cell viability incubated for 48 hrs by MTT assay; format: functional, cell-based
[14] = target: T3, DNA (cytosine-5)-methyltransferase 3A (Homo sapiens, UniProt Q9Y6K1); experiment: Inhibition of human recombinant DNMT3A (214 to 912 residues)expressed in Sf9 insect cells using lambda DNA as substrate by scintillation/filter plate assay
T3 sequence (Q9Y6K1 whole entry, looked up, the tested form may be a part): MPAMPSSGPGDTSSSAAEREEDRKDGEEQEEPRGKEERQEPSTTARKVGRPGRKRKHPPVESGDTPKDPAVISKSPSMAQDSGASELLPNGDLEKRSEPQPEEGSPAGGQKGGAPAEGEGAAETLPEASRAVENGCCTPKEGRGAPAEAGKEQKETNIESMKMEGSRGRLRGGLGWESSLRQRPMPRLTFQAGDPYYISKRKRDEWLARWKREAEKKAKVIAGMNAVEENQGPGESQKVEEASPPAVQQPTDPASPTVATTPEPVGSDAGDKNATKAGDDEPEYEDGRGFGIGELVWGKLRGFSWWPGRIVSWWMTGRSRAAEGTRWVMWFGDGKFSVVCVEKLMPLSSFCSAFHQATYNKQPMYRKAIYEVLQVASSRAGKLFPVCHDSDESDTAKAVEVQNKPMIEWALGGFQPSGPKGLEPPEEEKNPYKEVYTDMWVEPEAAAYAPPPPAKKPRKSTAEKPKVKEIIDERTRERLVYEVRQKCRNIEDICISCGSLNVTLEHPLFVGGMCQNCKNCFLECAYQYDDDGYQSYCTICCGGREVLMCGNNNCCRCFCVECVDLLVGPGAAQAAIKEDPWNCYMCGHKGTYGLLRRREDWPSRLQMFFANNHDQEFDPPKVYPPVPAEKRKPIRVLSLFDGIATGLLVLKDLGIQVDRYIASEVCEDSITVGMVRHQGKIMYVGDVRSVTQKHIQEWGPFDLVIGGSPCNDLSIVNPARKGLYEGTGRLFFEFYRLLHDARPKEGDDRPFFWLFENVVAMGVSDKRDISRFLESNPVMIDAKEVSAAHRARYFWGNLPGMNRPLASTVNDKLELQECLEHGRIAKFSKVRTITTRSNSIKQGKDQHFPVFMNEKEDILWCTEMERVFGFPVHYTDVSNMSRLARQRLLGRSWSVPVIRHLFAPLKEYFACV

[15] = target: T2, DNA (cytosine-5)-methyltransferase 1; experiment: Inhibition of his-tagged human DNMT1 by scintillation counter analysis
[16] = test system: NCI-H1299; experiment: Antiproliferative activity against human NCI-H1299 cells assessed as reduction cell viability incubated for 48 hrs by MTT assay; format: functional, cell-based; conditions: NCI-H1299, 48 h
[17] = test system: HeLa; experiment: Antiproliferative activity against human HeLa cells assessed as reduction cell viability incubated for 48 hrs by MTT assay; format: functional, cell-based
[18] = test system: HL-60; experiment: Antiproliferative activity against human HL-60 cells assessed as reduction cell viability incubated for 48 hrs by MTT assay; format: functional, cell-based; conditions: HL-60, 48 h
[19] = test system: KG-1; experiment: Antiproliferative activity against human KG-1 cells; format: functional, cell-based
[20] = test system: M14; experiment: Antiproliferative activity against human M14 cells assessed as reduction cell viability incubated for 48 hrs by MTT assay; format: functional, cell-based; conditions: M14, 48 h
[21] = target: T3, DNA (cytosine-5)-methyltransferase 3A; experiment: Inhibition of DNMT3A (unknown origin)
[22] = target: T3, DNA (cytosine-5)-methyltransferase 3A; experiment: Inhibition of C-terminal biotin-labelled human DNMT3A by multilabel plate reader analysis
[23] = test system: HT-1080; experiment: Antiproliferative activity against human HT-1080 cells assessed as reduction cell viability incubated for 48 hrs by MTT assay; format: functional, cell-based; conditions: HT-1080, 48 h
[24] = test system: HCT-116; experiment: Antiproliferative activity against human HCT-116 cells assessed as reduction cell viability incubated for 48 hrs by MTT assay; format: functional, cell-based; conditions: HCT-116, 48 h
[25] = test system: MCF7; experiment: Antiproliferative activity against human MCF7 cells assessed as reduction cell viability incubated for 48 hrs by MTT assay; format: functional, cell-based; conditions: MCF7, 48 h
[26] = target: Histone deacetylase; experiment: Inhibition of HDAC (unknown origin); format: protein assay, Homo sapiens
[27] = test system: NCI-H460; experiment: Antiproliferative activity against human NCI-H460 cells; format: functional, cell-based
[28] = test system: U-251; experiment: Antiproliferative activity against human U-251 cells; format: functional, cell-based
[29] = test system: HCT-116; experiment: Antiproliferative activity against human HCT-116 cells; format: functional, cell-based
[30] = Oral bioavailability CD-1 mouse at 30 mg/kg; format: ADME, organism-based; conditions: in vivo
[31] = test system: BT-483; experiment: Antiproliferative activity against human BT-483 cells; format: functional, cell-based
[32] = target: Histone deacetylase 8 (Homo sapiens, UniProt Q9BY41); experiment: Inhibition of HDAC8 (unknown origin)
Chain of Histone deacetylase 8 (Q9BY41 whole entry): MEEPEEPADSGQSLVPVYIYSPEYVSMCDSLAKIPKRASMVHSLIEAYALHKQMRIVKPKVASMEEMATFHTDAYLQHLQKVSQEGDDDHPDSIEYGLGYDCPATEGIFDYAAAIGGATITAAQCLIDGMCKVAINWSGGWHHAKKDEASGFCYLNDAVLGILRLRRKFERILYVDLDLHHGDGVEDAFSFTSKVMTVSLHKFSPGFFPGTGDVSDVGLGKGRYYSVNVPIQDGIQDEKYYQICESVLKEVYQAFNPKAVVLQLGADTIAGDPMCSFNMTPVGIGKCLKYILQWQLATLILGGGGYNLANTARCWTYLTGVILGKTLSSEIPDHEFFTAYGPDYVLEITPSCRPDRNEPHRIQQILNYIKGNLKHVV

[33] = test system: B16-F10; experiment: Antiproliferative activity against mouse B16-F10 cells; format: functional, cell-based
[34] = test system: A549; experiment: Antiproliferative activity against human A549 cells; format: functional, cell-based
[35] = test system: HeLa; experiment: Antiproliferative activity against human HeLa cells; format: functional, cell-based
[36] = Antiproliferative activity against human MED-MEB-8A cells; format: functional, cell-based
[37] = test system: MCF7; experiment: Antiproliferative activity against human MCF7 cells; format: functional, cell-based
[38] = test system: Jurkat E6.1; experiment: Antiproliferative activity against human Jurkat E6.1 cells; format: functional, cell-based
[39] = test system: HeLa; experiment: Antiproliferative activity against human HeLa cells assessed as reduction in cell viability incubated for 48 hrs by MTT assay; format: functional, cell-based
[40] = test system: A549; experiment: Antiproliferative activity against human A549 cells assessed as reduction in cell viability incubated for 48 hrs by MTT assay; format: functional, cell-based; conditions: A549, 48 h
[41] = target: T1, DNA topoisomerase 1; experiment: Inhibition of human topoisomerase 1 incubated for 2 hrs by ELISA analysis
[42] = test system: SR; experiment: Cytotoxicity against human SR cells incubated for 24 hrs by MTT assay; format: functional
[43] = test system: MDA-MB-435; experiment: Cytotoxicity against human MDA-MB-435 cells incubated for 24 hrs by MTT assay; format: functional
[44] = test system: HL-60; experiment: Cytotoxicity against human HL-60 cells incubated for 24 hrs by MTT assay; format: functional

CN(C)CCNc1nc2cc(O)ccc2c2c1C(=O)c1ccccc1-2
IC50 [1]: 9.6 nM
IC50 [2]: 1.1 nM
IC50 [3]: 6500 nM
IC50 [4]: 2000 nM

CC1CN(c2nc3ccccc3c3c2-c2ccc(Cl)cc2C3=O)CCN1 (centres undefined)
IC50 [5]: 2400 nM
IC50 [6]: 1660 nM

O[C@@H]1[C@@H](O)[C@H](Oc2ccc(O[C@@H]3O[C@H](COc4cccc5cccnc45)[C@@H](O)[C@H](O)[C@H]3O)cc2)O[C@H](COc2cccc3cccnc23)[C@H]1O
Activity [7]: 34.9%

O=C(Nc1ccc(NC(=O)c2ccc(Nc3ccnc4ccccc34)cc2)cc1)OCc1ccccc1
IC50 [8]: 400 nM
IC50 [9]: 900 nM
IC50 [10]: 900 nM
IC50 [11]: 67000 nM
IC50 [12]: 400 nM
IC50 [13]: 2400 nM
IC50 [14]: 17000 nM

O=C(Nc1ccc(Nc2ccnc3ccccc23)cc1)c1ccc(Nc2ccncc2)cc1
IC50 [15]: 23000 nM
IC50 [16]: 14700 nM
IC50 [17]: 140 nM
IC50 [18]: 200 nM
IC50 [19]: 960 nM
IC50 [20]: 500 nM
IC50 [21]: 900 nM
IC50 [22]: 6000 nM
IC50 [23]: 500 nM
IC50 [24]: 1000 nM
IC50 [25]: 4100 nM

CC1(C)CC(=O)Nc2ccc(C(=O)NCC3CCC(/C=C/C(=O)NO)CC3)cc21 (centres undefined)
IC50 [26]: 1.5 nM
IC50 [27]: 1 nM
IC50 [28]: 0.6 nM
IC50 [29]: 600 nM

COc1ccc2c(c1)/C(=N\OCCN1CCCC1)c1c-2c(O)nc2ccccc12
bioavailability [30]: 10.9%

CCN(CC)CCOC(=O)c1ccc2c(c1)C1C(C(=O)c3ccccc3N1CCN(CC)CC)N2CCN(CC)CC (centres undefined)
IC50 [29]: < 10000 nM

COc1ccc2c(c1)/C(=N\OCCCN(C)C)c1c-2c(N2CCNCC2)nc2ccccc12
IC50 [31]: 1100 nM

COc1cc(NC(=O)NOCCCCCC(=O)NO)c2nc(OC)cc(C)c2c1
IC50 [32]: 1.74 nM
IC50 [33]: 9760 nM
IC50 [34]: 9120 nM
IC50 [35]: 11000 nM
IC50 [36]: 590 nM
IC50 [37]: 11400 nM
IC50 [38]: 7190 nM

CN(C)CCCO/N=C1\c2cc(OCCCN(C)C)ccc2-c2cnc3ccccc3c21
IC50 [39]: 390 nM
IC50 [40]: 1110 nM
bioavailability [30]: 39.8%
IC50 [3]: 4950 nM
IC50 [4]: 2630 nM

N#CC1=C(N)Oc2c(ccc3ccccc23)C1c1cc2ccccc2n2nnnc12 (centres undefined)
IC50 [41]: 278 nM
GI50 [42]: 232 nM
GI50 [43]: 300 nM
GI50 [44]: 260 nM

CCN(CC)CCOC(=O)c1ccc2c(c1)c1nc3ccccc3c(OCCN(CC)CC)c1n2CCN(CC)CC
IC90 [29]: < 10000 nM
